Measurements as given in patent US8173682B2, “Substituted pyridones as inhibitors of poly(ADP-ribose) polymerase (PARP)” (Aventis Pharmaceuticals Inc., priority 2004, dated 2012).
Where a name gives a salt, the structure may show the parent alone.

Each compound was assayed against T1, recombinant human PARP (PARP1) (Homo sapiens, UniProt P09874) (assay: PARP enzyme assay, Method A (radioactivity or 'ELISA' enzyme assay with partially purified enzyme)). Conditions: recombinant human PARP preparation, radioactive or ELISA enzyme assay.
T1 construct: Full length human PARP (PARP1) is assembled from PCR fragments; His6 tag with TEV site, from the pFastBac-HTb vector (own knowledge of the vector); made in house; host or cells: insect cells, baculovirus (Bac-to-Bac, Gibco-BRL)
Assay type: biochemical
How it was run: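 Partially purified recombinant full-length His-tagged human PARP1, baculovirus-expressed. Radioactive format: 100 μg/mL sonicated DNA, 100 μg/mL histones, 100 mM Tris pH 8.0, 10 mM MgCl2, 200 μM labeled NAD, 10 min 37 °C or 60 min RT, TCA-precipitated counts. ELISA format: 250 μM NAD plus biotin-NAD on histone plates, TMB A450.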

T1 sequence (P09874 whole entry, the tested form may be a part): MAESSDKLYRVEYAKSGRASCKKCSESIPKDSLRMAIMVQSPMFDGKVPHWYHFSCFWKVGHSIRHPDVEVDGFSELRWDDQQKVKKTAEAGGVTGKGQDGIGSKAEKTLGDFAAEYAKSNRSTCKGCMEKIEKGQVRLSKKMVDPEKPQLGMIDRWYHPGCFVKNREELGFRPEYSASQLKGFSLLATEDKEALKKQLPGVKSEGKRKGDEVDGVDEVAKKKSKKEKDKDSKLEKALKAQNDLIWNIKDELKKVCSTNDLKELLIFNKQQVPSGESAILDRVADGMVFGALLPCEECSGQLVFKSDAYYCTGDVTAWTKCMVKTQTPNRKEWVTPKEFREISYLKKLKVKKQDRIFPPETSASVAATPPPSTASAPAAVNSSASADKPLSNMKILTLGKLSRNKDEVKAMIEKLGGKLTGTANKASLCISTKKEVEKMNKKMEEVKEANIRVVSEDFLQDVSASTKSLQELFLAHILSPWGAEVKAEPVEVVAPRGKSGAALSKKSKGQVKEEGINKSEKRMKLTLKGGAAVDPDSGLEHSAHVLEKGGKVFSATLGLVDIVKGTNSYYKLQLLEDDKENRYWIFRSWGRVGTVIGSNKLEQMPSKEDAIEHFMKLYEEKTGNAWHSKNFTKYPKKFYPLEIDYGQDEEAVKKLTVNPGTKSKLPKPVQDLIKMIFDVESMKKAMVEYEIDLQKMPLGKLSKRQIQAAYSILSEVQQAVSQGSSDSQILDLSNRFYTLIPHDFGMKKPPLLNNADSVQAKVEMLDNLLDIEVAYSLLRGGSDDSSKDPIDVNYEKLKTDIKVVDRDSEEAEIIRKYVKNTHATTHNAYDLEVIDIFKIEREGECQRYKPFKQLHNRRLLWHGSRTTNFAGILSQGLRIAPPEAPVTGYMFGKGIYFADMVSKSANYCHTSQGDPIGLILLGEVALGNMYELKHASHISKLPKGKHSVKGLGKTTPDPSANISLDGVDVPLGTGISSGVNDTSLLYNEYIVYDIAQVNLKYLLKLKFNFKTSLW

Row | Structure (SMILES) | IC50
1 | CCc1cc(-c2ccc(S(=O)(=O)NCC(C)O)s2)c(C)[nH]c1=O (stereo not drawn) [Example 113, 5-(5-Ethyl-2-methyl-6-oxo-1,6-dihydropyridin-3-yl)thiophene-2-sulfonic acid (2-hydroxypropyl)amide] | 0.9 µM
2 | CCc1cc(-c2ccc(S(=O)(=O)NCC(O)c3ccccc3)s2)c(C)[nH]c1=O (stereo not drawn) [Example 114, 5-(5-Ethyl-2-methyl-6-oxo-1,6-dihydropyridin-3-yl)thiophene-2-sulfonic acid (2-hydroxy-2-phenylethyl)amide] | 0.37 µM
3 | CCc1cc(-c2ccc(S(=O)(=O)N3CCN(c4ccccn4)CC3)s2)c(C)[nH]c1=O [Example 116, 3-Ethyl-6-methyl-5-{5-[(4-pyridin-2-yl)piperazine-1-sulfonyl]thiophen-2-yl}-1H-pyridin-2-one hydrochloride] | 0.45 µM
4 | CCc1cc(-c2ccc(CNc3cc(C(=O)OC)n(C)c3)s2)c(C)[nH]c1=O [Example 130, 4-{[5-(5-Ethyl-2-methyl-6-oxo-1,6-dihydro-pyridin-3-yl)-thiophen-2-ylmethyl]-amino}-1-methyl-1H-pyrrole-2-carboxylic acid methyl ester dihydrochloride] | 1.2 µM
5 | CCc1cc(-c2ccc(CNCC3CCN(Cc4cc(F)cc(F)c4)CC3)s2)c(C)[nH]c1=O [Example 140, 5-(5-{[1-(3,5-Difluoro-benzyl)-)-piperidin-4-ylmethyl]-amino}methyl-thiophen-2-yl)-3-ethyl-6-methyl-1H-pyridin-2-one hydrochloride] | 0.64 µM
6 | CCc1cc(-c2ccc(CNCCc3ccccn3)s2)c(C)[nH]c1=O [Example 141, 3-Ethyl-6-methyl-5-{5-[(2-pyridin-2-ylethylamino)methyl]thiophen-2-yl}-1H-pyridin-2-one dihydrochloride] | 0.54 µM
7 | CCc1cc(-c2ccc(CNCCC3=CCCCC3)s2)c(C)[nH]c1=O [Example 144, 5-{5-[(2-Cyclohex-1-enyl-ethylamino)-methyl]thiophen-2-yl}-3-ethyl-6-methyl-1H-pyridin-2-one hydrochloride] | 0.62 µM
8 | CCc1cc(-c2ccc(CNc3cc(F)cc(F)c3)s2)c(C)[nH]c1=O [Example 145, 5-{5-[(3,5-Difluoro-phenylamino)-methyl]thiophen-2-yl}-3-ethyl-6-methyl-1H-pyridin-2-one hydrochloride] | 4 µM
9 | CCc1cc(-c2ccc(CNC3CCN(Cc4ccccc4)CC3)s2)c(C)[nH]c1=O [Example 151, 5-{5-[(1-Benzyl-piperidin-4-ylamino)-methyl]thiophen-2-yl}-3-ethyl-6-methyl-1H-pyridin-2-one dihydrochloride] | 0.92 µM
10 | CCc1cc(-c2ccc(CNCc3ccncc3)s2)c(C)[nH]c1=O [Example 152, 3-Ethyl-6-methyl-5-{5-{[(pyridin-4-ylmethyl)-amino]-methyl-thiophen-2-yl)-1H-pyridin-2-one dihydrochloride] | 0.83 µM
11 | CCc1cc(-c2ccc(CNCCCn3ccnc3)s2)c(C)[nH]c1=O [Example 153, 3-Ethyl-6-methyl-5-{5-[(3-imidazol-1-yl-propylamino)-methyl]thiophen-2-yl)-1H-pyridin-2-one dihydrochloride] | 0.67 µM
12 | CCc1cc(-c2ccc(CNCCc3cnc[nH]3)s2)c(C)[nH]c1=O [Example 155, 3-Ethyl-5-(5-{[(2-(3H-imidazol-4-yl)ethylamino]methyl}thiophen-2-yl)-6-methyl-1H-pyridin-2-one dihydrochloride] | 0.71 µM
13 | CCc1cc(-c2ccc(CNC3Cc4ccccc4C3)s2)c(C)[nH]c1=O [Example 156, 3-Ethyl-5-[5-(indan-2-ylaminomethyl)-thiophen-2-yl]-6-methyl-1H-pyridin-2-one hydrochloride] | 0.44 µM
14 | CCc1cc(-c2ccc(CNCc3ccccc3)s2)c(C)[nH]c1=O [Example 157, 5-[5-(Benzylamino-methyl)-thiophen-2-yl]-3-ethyl-6-methyl-1H-pyridin-2-one hydrochloride] | 0.6 µM
15 | CCc1cc(-c2ccc(CNCc3cc(F)cc(F)c3)s2)c(C)[nH]c1=O [Example 158, 5-[5-(3,5-Difluorobenzylaminomethyl)thiophen-2-yl]-3-ethyl-6-methyl-1H-pyridin-2-one hydrochloride] | 0.51 µM
16 | CCc1cc(-c2ccc(CNCc3cccnc3)s2)c(C)[nH]c1=O [Example 162, 3-Ethyl-6-methyl-5-{5-{[(pyridin-3-ylmethyl)amino]methyl}thiophen-2-yl)-1H-pyridin-2-one dihydrochloride] | 0.52 µM
17 | CCc1cc(-c2ccc(CNCCc3cccnc3)s2)c(C)[nH]c1=O [Example 163, 3-Ethyl-6-methyl-5-{5-{[(pyridin-3-ylethyl)amino]methyl}thiophen-2-yl)-1H-pyridin-2-one dihydrochloride] | 1.7 µM

More lines, now with the values ahead:

Row | IC50 | Structure (SMILES)
18 | 0.45 µM | CCc1cc(-c2ccc(CN[C@H]3CC[C@H](O)CC3)s2)c(C)[nH]c1=O [Example 125, 3-Ethyl-5-{5-[(4-hydroxycyclohexylamino)methyl]thiophen-2-yl]-6-methyl-1H-pyridin-2-one hydrochloride]
19 | 0.67 µM | CCc1cc(-c2ccc(CN3CCC(O)CC3)s2)c(C)[nH]c1=O [Example 127, 3-Ethyl-5-[5-(4-hydroxy-piperidin-1-ylmethyl)-thiophen-2-yl]-6-methyl-1H-pyridin-2-one hydrochloride]
20 | 0.46 µM | CCc1cc(-c2ccc(CNCCO)s2)c(C)[nH]c1=O [Example 128, 3-Ethyl-5-{5-[(2-hydroxy-ethylamino)-methyl]thiophen-2-yl}-6-methyl-1H-pyridin-2-one hydrochloride]
21 | 1.8 µM | CCc1cc(-c2ccc(CN3CCC(N4CCCCC4)CC3)s2)c(C)[nH]c1=O [Example 129, 5-(5-[1,4′]Bipiperidinyl-1′-ylmethyl-thiophen-2-yl)-3-ethyl-6-methyl-1H-pyridin-2-one dihydrochloride]
22 | 0.47 µM | CCc1cc(-c2ccc(CN3CCCC(CO)C3)s2)c(C)[nH]c1=O (stereo not drawn) [Example 131, 3-Ethyl-5-[5-(3-hydroxymethyl-piperidin-1-ylmethyl)-thiophen-2-yl]-6-methyl-1H-pyridin-2-one hydrochloride]
23 | 1.3 µM | CCc1cc(-c2ccc(CNC3CCN(CC4CCCCC4)CC3)s2)c(C)[nH]c1=O [Example 132, 5-{5-[(1-Cyclohexylmethyl-piperidin-4-ylamino)-methyl]thiophen-2-yl}-3-ethyl-6-methyl-1H-pyridin-2-one dihydrochloride]
24 | 2.8 µM | CCc1cc(-c2ccc(CN(C)C3CCN(C)C3)s2)c(C)[nH]c1=O (stereo not drawn) [Example 133, 5-{5-[Methyl(1-methylpyrrolidin-3-yl)amino-methyl]thiophen-2-yl}-3-ethyl-6-methyl-1H-pyridin-2-one dihydrochloride]
25 | 0.8 µM | CCc1cc(-c2ccc(CNC3CCc4ccccc4C3)s2)c(C)[nH]c1=O (stereo not drawn) [Example 134, 3-Ethyl-6-methyl-5-{5-[(1,2,3,4-tetrahydro-naphthalen-2-ylamino)-methyl]thiophen-2-yl}-1H-pyridin-2-one hydrochloride]
26 | 0.52 µM | CCc1cc(-c2ccc(CNC3CCC3)s2)c(C)[nH]c1=O [Example 137, 5-(5-Cyclobutylaminomethyl-thiophen-2-yl)-3-ethyl-6-methyl-1H-pyridin-2-one hydrochloride]
27 | 0.63 µM | CCc1cc(-c2ccc(CNCCOC)s2)c(C)[nH]c1=O [Example 138, 3-Ethyl-5-{5-[(2-methoxyethylamino)-methyl]thiophen-2-yl}-6-methyl-1H-pyridin-2-one hydrochloride]
28 | 2.6 µM | CCc1cc(-c2ccc(CNC3CCN(c4nccc(C(F)(F)F)n4)CC3)s2)c(C)[nH]c1=O [Example 139, dihydrochloride]
29 | 2.1 µM | CCc1cc(-c2ccc(CNC3CC3)s2)c(C)[nH]c1=O [Example 142, 5-(5-Cyclopropylaminomethyl-thiophen-2-yl)-3-ethyl-6-methyl-1H-pyridin-2-one hydrochloride]
30 | 0.49 µM | CCc1cc(-c2ccc(CNC(C)C(C)C)s2)c(C)[nH]c1=O (stereo not drawn) [Example 147, 5-{5-[(3-methylbut-2-ylamino)methyl]thiophen-2-yl}-3-ethyl-6-methyl-1H-pyridin-2-one hydrochloride]
31 | 0.79 µM | CCc1cc(-c2ccc(CN3CCC4(CC3)OCCO4)s2)c(C)[nH]c1=O [Example 149, 5-[5-(1,4-Dioxa-8-aza-spiro[4,5]dec-8-ylmethy)-thiophen-2-yl)-3-ethyl-6-methyl-1H-pyridin-2-one hydrochloride]
32 | 1.3 µM | CCc1cc(-c2ccc(CN3CCC(=O)CC3)s2)c(C)[nH]c1=O [Example 150, 3-Ethyl-6-methyl-5-[5-(4-oxo-piperidin-1-ylmethy)-thiophen-2-yl]-1H-pyridin-2-one hydrochloride]
33 | 0.53 µM | CCc1cc(-c2ccc(CNCCN3CCCC3)s2)c(C)[nH]c1=O [Example 154, 3-Ethyl-6-methyl-5-{5-{[(2-pyrrolidin-1-ylethylamino)-methyl]thiophen-2-yl)-1H-pyridin-2-one dihydrochloride]
34 | 0.72 µM | CCc1cc(-c2ccc(CNC3CCN(Cc4ccccc4)C3)s2)c(C)[nH]c1=O (stereo not drawn) [Example 159, 5-{5-[(1-Benzyl-pyrrolidin-3-ylamino)-methyl]-thiophen-2-yl}-3-ethyl-6-methyl-1H-pyridin-2-one dihydrochloride]
35 | 1.7 µM | CCc1cc(-c2ccc(CN3CCC(N4CCCC4)CC3)s2)c(C)[nH]c1=O [Example 160, 3-Ethyl-6-methyl-5-[5-(4-pyrrolidin-1-ylpiperidin-1-ylmethyl)-thiophen-2-yl]1-1H-pyridin-2-one dihydrochloride]
36 | 1.3 µM | CCc1cc(-c2ccc(CNCc3nccn3C)s2)c(C)[nH]c1=O [Example 161, 3-Ethyl-6-methyl-5-(5-{[(1-methyl-1H-imidazol-2-yl)methyl)amino]methyl}-thiophen-2-yl)-1H-pyridin-2-one dihydrochloride]
